The values below come from patent publication US20060286574A1 (priority 2005, published 2006).

Assay [1] concerns E. coli. It counts as cell-based. To be noted: for enhancement of the activity of ciprofloxacin: at 25 μM.
For assay [2], the system named is E. coli ΔrecB strains. Type of assay: cell-based. To be noted: putative ΔrecB transductants and parental ΔrecB strain.
In assay [3] the test system is K. pneumoniae. It counts as in vivo. To be noted: mice; wild type vs ΔrecB K. pneumoniae; 0.064-15 mg/kg/day ciprofloxacin; 48 hour endpoint; FIG. 6.
In assay [4] the test system is E. coli.
The subject of assay [5] is E. coli. The experiment in a line: Effect of gam expression on ciprofloxacin efficacy in E. coli. Type of assay: cell-based.
For assay [6], the system named is P. aeruginosa. The experiment in a line: Effect of gam expression on ciprofloxacin efficacy in P. aeruginosa. It counts as cell-based.

With `Nc1ccc2noc3c2c1C(=O)c1ccccc1-3` [Formula Ia], the “MIC shift in ciprofloxacin responsiveness” value in assay [1] amounted to 10 ×. Turning to `CO[C@@]12[C@H](COC(N)=O)C3=C(C(=O)C(C)=C(N)C3=O)N1C[C@@H]1N[C@@H]12` [Mitomycin C], in assay [2], the “Mitomycin C MIC of ΔrecB strains, lower compared to recB+ strains” value is given as “about 8 fold”.

As for `Cn1c2ccccc2n2c3ncccc3c(=O)c(C#N)c12` [Formula IIb], the “enhancement of the activity of ciprofloxacin” value in assay [1] is on record as “enhanced the activity of ciprofloxacin”. As for `O=C(O)c1cn(C2CC2)c2cc(N3CCNCC3)c(F)cc2c1=O` [ciprofloxacin], in assay [3], the “reduction in CFU in thigh (log CFU/gm of thigh)” value was “significantly greater reduction in CFU for the recB mutants relative to the wild type strain”. In assay [4], this molecule gave a cells killed of 99%. In the case of `Cn1c2ccccc2n2c3cnccc3c(=O)c(C#N)c12` [Formula IIc], the “enhancement of the activity of ciprofloxacin” value in assay [1] is on record as “enhanced the activity of ciprofloxacin”.

B1: lambda gam: protein used by λ phage to inhibit E. coli RecB; overexpressed from an arabinose-inducible vector (protein, UniProt P03702 1-138, looked up)
Host-nuclease inhibitor …: MDINTETEIKQKHSLTPFPVFLISPAFRGRYFHSYFRSSAMNAYYIQDRLEAQSWARHYQQLAREEKEAELADDMEKGLPQHLFESLCIDHLQRHGASKKSITRAFDDDVEFQERMAEHIRYMVETIAHHQVDIDSEV
Turning to B1, the “effect of lambda gam overexpression on ciprofloxacin sensitivity” value in assay [5] (strain lacking the RecB target (RTC0148) relative to empty vector strain (RTC0147)) and in assay [6] (strain lacking the RecB target (RTC1019) relative to empty vector strain (RTC1016)) was “no effect” in each case. Besides, the “decrease in the ciprofloxacin IC50 on overexpression of lambda gam” value in assay [5] (wild-type E. coli (RTC0142) and gyrA(S83L) (RTC0144) relative to empty vector controls (RTC0141, RTC0143)) is on record as 5-8 fold. Further, the “decrease in the ciprofloxacin MIC on overexpression of lambda gam” value in assay [6] (wild-type P. aeruginosa (RTC1017) and gyrA(S831) mutant (RTC1018) relative to empty vector controls (RTC1014, RTC1015)) is listed as 2-4 fold.
